Results from patent US4279915A, “Method of treatment using new leurosine derivatives” (priority 1973, dated 1981).

What was measured:
[1] = system: Harding Passey melanoma; conditions: cited from earlier work
[2] = system: rhabdomyo-sarcoma; conditions: cited from earlier work
[3] = system: VX-2 rabbit epitheloma; conditions: cited from earlier work
[4] = acute toxicity in Swiss mice; type: in vivo, mouse; conditions: mouse, in vivo, Swiss mice
Description: ACUTE TOXICITY IN SWISS MICE
Table III lists the comparative toxicological data concerning Vincristine, Vinblastine and F-leurosine. The new analogue is approximately 7 times less toxic than Vincristine and 4 times less toxic than Vinblastine in acute rodent experiments.

[5] = system: cancer; conditions: animal tests and human therapy; cited from earlier work

Which results are given for CC[C@]1(O)C[C@@H]2CN(CCc3c([nH]c4ccccc34)[C@@](C(=O)OC)(c3cc4c(cc3OC)N(C)[C@H]3[C@@](O)(C(=O)OC)[C@H](OC(C)=O)[C@]5(CC)C=CCN6CC[C@]43[C@@H]65)C2)C1 [Vinblastine, vincaleucoblastine]?
treatability with hitherto known cytostatics [1]: could hardly be treated, if at all; treatability with hitherto known cytostatics [2]: could hardly be treated, if at all; treatability with hitherto known cytostatics [3]: could hardly be treated, if at all; LD50 ([4]; ip, 1 x i.p.): 7.6 mg/kg; LD50 ([4]; iv, 1 x i.v.): 15 mg/kg

For CC[C@]1(O)C[C@H]2CN(CCc3c([nH]c4ccccc34)[C@@](C(=O)OC)(c3cc4c(cc3OC)N(C=O)[C@H]3[C@@](O)(C(=O)OC)[C@H](OC(C)=O)[C@]5(CC)C=CCN6CC[C@]43[C@@H]65)C2)C1 [Vincristine, leurocristine], which “activity relative to vinblastine” value [5] is on record?
The value was “more active both in animal tests, and, primarily, in human therapy”.

What about the “treatability with hitherto known cytostatics” value (shortened to “treatability”) [1] of the same compound?
The value was “could hardly be treated, if at all”.

And the “treatability” value [2]?
The value was “could hardly be treated, if at all”.

What about the “treatability” value [3] of the same compound?
The value was “could hardly be treated, if at all”.

And the LD50 ([4]; ip, 1 x i.p.)?
The LD50 was 4 mg/kg.

What about the LD50 ([4]; iv, 1 x i.v.) of the same compound?
The LD50 was 3 mg/kg.
